pIC50: −log10 of the molar value.

In patent US20260250290A1 (BRISTOL-MYERS SQUIBB COMPANY, priority 2023, published 2026) one finds IC50 data, which are given here for 18 compounds.

The target in this assay is T1, SGK1 (Homo sapiens, UniProt O00141).
T1 sequence (O00141 1-431): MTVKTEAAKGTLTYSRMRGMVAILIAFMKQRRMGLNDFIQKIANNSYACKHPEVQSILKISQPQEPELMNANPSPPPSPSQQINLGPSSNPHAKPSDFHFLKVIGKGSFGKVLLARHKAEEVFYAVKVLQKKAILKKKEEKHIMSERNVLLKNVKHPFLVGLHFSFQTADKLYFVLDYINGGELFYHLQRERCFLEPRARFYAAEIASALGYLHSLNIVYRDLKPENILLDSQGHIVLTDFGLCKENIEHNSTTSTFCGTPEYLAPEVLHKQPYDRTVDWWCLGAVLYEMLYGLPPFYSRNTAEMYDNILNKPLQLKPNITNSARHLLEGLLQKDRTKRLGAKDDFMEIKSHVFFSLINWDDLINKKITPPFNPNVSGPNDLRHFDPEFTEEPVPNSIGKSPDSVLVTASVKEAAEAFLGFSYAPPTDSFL
Description: SGK1 inhibition Assay B (Echo mass spectrometry of phosphorylated peptide product). The format is biochemical. Particulars: 60 min at room temperature.
As a reminder, the pIC50 is −log10 of the IC50, conventionally taken in molar units. Consider “(R)-N-(1-(4-amino-7-(4-(5-methyl-1H-tetrazol-1-yl)phenyl)pyrrolo[2,1-f][1,2,4]triazin-5-yl)piperidin-3-yl)-2-(4-methylpiperazin-1-yl)pyrimidine-4-carboxamide [Example 857]”, for which the negative logarithm of the IC50 (pIC50) is 7.82. In the case of `CCC(CC)N[C@H]1CC[C@@H](Oc2nc(C)sc2C(=O)N[C@@H]2CCCN(c3cc(C4=CC(=O)OC4)n4ncnc(N)c34)C2)CC1` [Example 1003, N—((R)-1-(4-amino-7-(5-oxo-2,5-dihydrofuran-3-yl)pyrrolo[2,1-f][1,2,4]triazin-5-yl)piperidin-3-yl)-2-methyl-4-(((1S,4S)-4-(pentan-3-ylamino)cyclohexyl)oxy)thiazole-5-carboxamide] it was 9.10.

As for `CN1CCN(c2nccc(C(=O)N[C@@H]3CCCN(c4cc(-c5cc(F)c(-n6cnnn6)cc5F)n5ncnc(N)c45)C3)n2)CC1` [Example 853, (R)-N-(1-(4-amino-7-(2,5-difluoro-4-(1H-tetrazol-1-yl)phenyl)pyrrolo[2,1-f][1,2,4]triazin-5-yl)piperidin-3-y1)-2-(4-methylpiperazin-1-yl)pyrimidine-4-carboxamide], the negative-log IC50 (pIC50) is 7.92. Consider `COc1nc(-c2cc(N3CCC[C@@H](NC(=O)c4sc(C)nc4OC4CCC(N5CCC5)CC4)C3)c3c(N)ncnn23)ccc1C(N)=O` (stereo partly drawn) [Example 1045, (R)—N-(1-(4-amino-7-(5-carbamoyl-6-methoxypyridin-2-yl)pyrrolo[2,1-f][1,2,4]triazin-5-yl)piperidin-3-yl)-4-((4-(azetidin-1-yl)cyclohexyl)oxy)-2-methylthiazole-5-carboxamide], for which the pIC50 was 9.30.

In the case of `CNC(=O)c1ccc(-c2cc(N3CCC[C@@H](NC(=O)c4sc(C)nc4O[C@H]4CC[C@@H](N(C)C)CC4)C3)c3c(N)ncnn23)cc1F` [Example 932, N—((R)-1-(4-amino-7-(3-fluoro-4-(methylcarbamoyl)phenyl)pyrrolo[2,1-f][1,2,4]triazin-5-yl)piperidin-3-yl)-4-(((1s,4S)-4-(dimethylamino)cyclohexyl)oxy)-2-methylthiazole-5-carboxamide], the pIC50 was 8.52.

Compound `Cc1nc(O[C@@H]2C[C@H]3CC[C@@H](C2)N3C)c(C(=O)N[C@@H]2CCCN(c3cc(-c4ccc5c(c4)CNC5=O)n4ncnc(N)c34)C2)s1` [Example 961, N-((R)-1-(4-amino-7-(1-oxoisoindolin-5-y1)pyrrolo[2,1-f][1,2,4]triazin-5-y1)piperidin-3-y1)-2-methy1-4-(((IR,3s,5S)-8-methyl-8-azabicyclo[3.2.1]octan-3-yl)oxy)thiazole-5-carboxamide] showed a pIC50 of 8.30. `CN1CCN(c2nccc(C(=O)N[C@@H]3CCCN(c4cc(-c5cnc(-n6cnnn6)c(F)c5)n5ncnc(N)c45)C3)n2)CC1` [Example 858] showed a pIC50 of 8.40. Take `Cc1nc(OC2CC3CCC2CN3C)c(C(=O)N[C@@H]2CCCN(c3cc(-c4ccc(-n5cnnn5)nc4)n4ncnc(N)c34)C2)s1` (single isomer, unassigned) [Example 992]: the pIC50 was 8.00. Compared with the last compound, the pIC50 is 0.40 log units lower. As to `Cc1nc(OC2CCC(NC(C)(C)C)CC2)c(C(=O)N[C@@H]2CCCN(c3cc(-c4ccc(S(C)(=O)=O)cn4)n4ncnc(N)c34)C2)s1` (stereo partly drawn) [Example 1026, (R)—N-(1-(4-amino-7-(5-(methylsulfonyl)pyridin-2-yl)pyrrolo[2,1-f][1,2,4]triazin-5-yl)piperidin-3-yl)-4-((4-(tert-butylamino)cyclohexyl)oxy)-2-methylthiazole-5-carboxamide], the pIC50 is 8.66. The value for `CC(C)N1CC2CC(Oc3cc(Cl)sc3C(=O)N[C@@H]3CCCN(c4cc(-c5ccc(-n6cnnn6)nc5)n5ncnc(N)c45)C3)CC2C1` (stereo partly drawn) [Example 959, N—((R)-1-(7-(6-(1H-tetrazol-1-yl)pyridin-3-yl)-4-aminopyrrolo[2,1-f][1,2,4]triazin-5-yl)piperidin-3-yl)-5-chloro-3-(((3aR,6aS)-2-isopropyloctahydrocyclopenta[c]pyrrol-5-yl)oxy) thiophene-2-carboxamide] was 8.70; that for `Cc1nccc(-c2cc(N3CCC[C@@H](NC(=O)c4sc(C)nc4OC4CCC(N5CCC5)CC4)C3)c3c(N)ncnn23)n1` (stereo partly drawn) [Example 1037, N—((R)-1-(4-amino-7-(2-methylpyrimidin-4-yl)pyrrolo[2,1-f][1,2,4]triazin-5-yl)piperidin-3-yl)-4-(((1S,4S)-4-(azetidin-1-yl)cyclohexyl)oxy)-2-methylthiazole-5-carboxamide] was 8.92; that for `Cc1cc(-c2cc(N3CCC[C@@H](NC(=O)c4sc(C)nc4O[C@H]4CC[C@@H](N(C)C)CC4)C3)c3c(N)ncnn23)cnn1` [Example 1046] was 7.80. As for `CCNC1CCC(Oc2nc(C)sc2C(=O)N[C@@H]2CCCN(c3cc(C4=C(C)C(=O)OC4)n4ncnc(N)c34)C2)CC1` (stereo partly drawn) [Example 1011, (R)—N-(1-(4-amino-7-(4-methyl-5-oxo-2,5-dihydrofuran-3-yl)pyrrolo[2,1-f][1,2,4]triazin-5-yl)piperidin-3-yl)-4-((4-(ethylamino)cyclohexyl)oxy)-2-methylthiazole-5-carboxamide], the pIC50 is 8.66. This pIC50 is 0.86 log units higher than that of the compound before. Turning to “N—((R)-1-(4-amino-7-(2-(tert-butyl)-1,1-dioxido-2,3-dihydrobenzo[d]isothiazol-5-yl)pyrrolo[2,1-f][1,2,4]triazin-5-yl)piperidin-3-yl)-5-chloro-3-(((1R,3s,5S)-8-methyl-8-azabicyclo [3.2.1]octan-3-yl)oxy)thiophene-2-carboxamide [Example 967]”, the pIC50 was 9.05. With `CCC(C)(C)N[C@H]1CC[C@@H](Oc2nc(C)sc2C(=O)N[C@@H]2CCCN(c3cc(-c4ccnc(OC)n4)n4ncnc(N)c34)C2)CC1` [Example 1030, (R)—N-(1-(4-amino-7-(2-methoxypyrimidin-4-yl)pyrrolo[2,1-f][1,2,4]triazin-5-yl)piperidin-3-yl)-2-methyl-4-((4-(tert-pentylamino)cyclohexyl)oxy)thiazole-5-carboxamide], the pIC50 was 9.05. With `CC(=O)c1ccc(-c2cc(N3CCC[C@@H](NC(=O)c4sc(C)cc4O[C@@H]4C[C@H]5CC[C@@H](C4)N5C)C3)c3c(N)ncnn23)cn1` [Example 846, N-((R)-1-(7-(6-acetylpyridin-3-yl)-4-aminopyrrolo[2,1-f][1,2,4]triazin-5-yl)piperidin-3-yl)-5-methyl-3-(((1R,3s,5S)-8-methyl-8-azabicyclo[3.2.1]octan-3-yl)oxy)thiophene-2-carboxamide], the pIC50 is 7.80. Against the preceding compound, the pIC50 is 1.25 log units lower.

`CCN1C2CCC1CC(Oc1nc(C)sc1C(=O)NC1CCCN(c3cc(-c4ccc(C#N)nc4)n4ncnc(N)c34)C1)C2` [Example 964, N-((R)-1-(4-amino-7-(6-cyanopyridin-3-yl)pyrrolo[2,1-f][1,2,4]triazin-5-y1)piperidin-3-y1)-4-(((1R,3s,5S)-8-ethyl-8-azabicyclo[3.2.]]octan-3-y])oxy)-2-methylthiazole-5-carboxamide]: the pIC50 is 7.34. The value for `CC(=O)N1CC=C(c2cc(N3CCC[C@@H](NC(=O)c4cc5[nH]ccc5s4)C3)c3c(N)ncnn23)C1` [Example 923, (R)—N-(1-(7-(1-acetyl-2,5-dihydro-1H-pyrrol-3-yl)-4-aminopyrrolo[2,1-f][1,2,4]triazin-5-yl)piperidin-3-yl)-4H-thieno[3,2-b]pyrrole-2-carboxamide] was 9.00.
